Active and inactive are the calls of the source. The rule behind the calls is not given here.

The subject of the assay is Mus musculus. The assay is described as follows: Antiulcerogenic activity against acidified ethanol induced-gastric lesions in Swiss mouse at 100 mg/kg, po administered 1 hr prior to acidified ethanol challenge measured after 1 hr. The format is functional, organism-based.

Turning to `CO[C@]1(CC[C@@H](C)CO[C@H]2O[C@@H](CO)[C@H](O)[C@@H](O)[C@@H]2O)O[C@H]2C[C@H]3[C@@H]4CC[C@H]5C[C@@H](O[C@@H]6O[C@H](CO)[C@H](O[C@@H]7O[C@H](CO)[C@@H](O)[C@H](O[C@@H]8O[C@H](CO)[C@@H](O)[C@H](O[C@@H]9O[C@H](CO)[C@@H](O)[C@H](O)[C@H]9O)[C@H]8O)[C@H]7O[C@@H]7OC[C@@H](O[C@@H]8O[C@@H](C)[C@H](O)[C@@H](O)[C@H]8O)[C@H](O)[C@H]7O)[C@H](O)[C@H]6O)CC[C@]5(C)[C@H]4CC[C@]3(C)[C@H]2[C@@H]1C`, the result was Active.
The entry for `C[C@@H]1CC[C@@]2(OC1)O[C@H]1C[C@H]3[C@@H]4C[C@H](O)[C@H]5C[C@@H](O[C@@H]6O[C@H](CO)[C@H](O[C@@H]7O[C@H](CO)[C@@H](O)[C@H](O[C@@H]8O[C@H](CO)[C@@H](O[C@@H]9O[C@@H](C)[C@H](O)[C@@H](O)[C@H]9O)[C@H](O)[C@H]8O)[C@H]7O[C@@H]7O[C@H](CO)[C@@H](O)[C@H](O[C@@H]8O[C@H](CO)[C@@H](O)[C@H](O)[C@H]8O)[C@H]7O)[C@H](O)[C@H]6O)CC[C@]5(C)[C@H]4CC(=O)[C@]3(C)[C@H]1[C@@H]2C` is “Active”.
